pKd: −log10 of the molar value.
Experiments:
Type in all cases: binding
[1] = target: T1, MUP11 (Mus musculus, UniProt P04938); assay: 1H-15N HSQC NMR chemical shift perturbation
T1 construct: N-terminal His6-tagged recombinant MUP11 (mature protein)
T1 sequence (P04938 20-181): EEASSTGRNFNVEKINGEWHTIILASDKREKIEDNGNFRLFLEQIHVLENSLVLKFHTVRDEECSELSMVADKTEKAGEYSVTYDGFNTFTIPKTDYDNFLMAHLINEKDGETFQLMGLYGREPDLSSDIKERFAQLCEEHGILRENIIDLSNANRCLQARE

[2] = target: T2, darcin (Mus musculus, UniProt Q5FW60); assay: 1H-15N HSQC NMR chemical shift perturbation
T2 construct: gene Mup20; N-terminal His6-tagged recombinant darcin (mature protein)
T2 sequence (Q5FW60 20-181): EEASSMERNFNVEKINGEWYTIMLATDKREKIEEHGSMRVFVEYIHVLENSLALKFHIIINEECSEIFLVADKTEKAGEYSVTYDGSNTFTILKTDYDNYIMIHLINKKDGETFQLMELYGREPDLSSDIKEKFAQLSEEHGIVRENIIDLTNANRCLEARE

[3] = target: T1, MUP11; assay: ITC, one-site model, […] °C; also 1H-15N HSQC NMR titration
[4] = target: T2, darcin; assay: as above

SMILES | 1H-15N HSQC NMR chemical shift perturbation [1] | 1H-15N HSQC NMR chemical shift perturbation [2] | pKd [3] | pKd [4]
CC1=CC(=O)c2ccccc2C1=O [K3, menadione] | The smaller ligands, K3 and SBT, bind to both darcin and MUP11 in the hydrophobic cavity of the beta barrel | The smaller ligands, K3 and SBT, bind to both darcin and MUP11 in the hydrophobic cavity of the beta barrel |  | 
CCC(C)c1nccs1 (stereo not shown) [SBT, 2-sec-butyl-thiazole] |  |  | ~5.56 | ~6.76

— article PMC4184797, “The Structure, Stability and Pheromone Binding of the Male Mouse Protein Sex Pheromone Darcin” (PLoS ONE, 2014)
